According to ChEMBL document CHEMBL1201862, “PubChem BioAssay data set” (2004):
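Growth conditions: 96-well plates. Treatment: test compound, 48 hours, 5 concentrations. Analysis: linear interpolation between bracketing concentrations; unreached endpoints set to highest concentration. The concentration for 50% growth inhibition is given as GI50.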 Calls of active or inactive are those of the source. Rule as the data show it: active = GI50 up to about 1.1 µM and inactive = higher.

Key:
Test in all cases: NCI tumour cell line growth inhibition, 48 h
TK-10 = tested on: TK-10
IGROV-1 = tested on: IGROV-1
DU-145 = tested on: DU-145
HCT-116 = tested on: HCT-116
A498 = tested on: A498
KM12 = tested on: KM12
SNB-75 = tested on: SNB-75
HCC 2998 = tested on: HCC 2998
MDA-MB-435 = tested on: MDA-MB-435
SK-MEL-2 = tested on: SK-MEL-2
CAKI-1 = tested on: CAKI-1
MCF7 = tested on: MCF7
SN12C = tested on: SN12C
SNB-19 = tested on: SNB-19
LOX IMVI = tested on: LOX IMVI
SF-268 = tested on: SF-268
SK-MEL-28 = tested on: SK-MEL-28
EKVX = tested on: EKVX
OVCAR-8 = tested on: OVCAR-8

Measured: GI50

OCC1OC(NC(=S)NCSCCC(F)(F)C(F)(F)C(F)(F)C(F)(F)C(F)(F)C(F)(F)F)C(O)C(O)C1O (configuration not stated)
inactive: TK-10 49.7 µM | IGROV-1 31.8 µM | DU-145 81.8 µM | HCT-116 34.4 µM | A498 1.77 µM | KM12 38.7 µM | SNB-75 96.4 µM | HCC 2998 43.8 µM | MDA-MB-435 16.4 µM | SK-MEL-2 51.6 µM | CAKI-1 76 µM | MCF7 40.8 µM | SN12C 60 µM | SNB-19 36.6 µM | LOX IMVI 34.4 µM | SF-268 15.2 µM | SK-MEL-28 5.77 µM

CC(=O)O[C@@H](C1C[C@@H](C)[C@H]2[C@@](O)(O1)[C@H](O)[C@@]1(C)C3=CC[C@H]4C(C)(C)[C@@H](OC5OCC(O)C(O)C5O)CC[C@@]45C[C@@]35CC[C@]21C)C(C)(C)O (some centres not stated)
inactive: TK-10 22.6 µM | IGROV-1 33.2 µM | DU-145 25.5 µM | EKVX 24.2 µM | HCT-116 18.1 µM | A498 23.8 µM | OVCAR-8 29.8 µM | KM12 22.5 µM | HCC 2998 14.3 µM | MDA-MB-435 24 µM | SK-MEL-2 18.6 µM | CAKI-1 38.7 µM | MCF7 17.9 µM | SN12C 22.8 µM | SNB-19 34.4 µM | LOX IMVI 19.5 µM | SF-268 34 µM | SK-MEL-28 23.2 µM

COC(=O)c1c(C(=O)OC)c2ccc(-c3ccc(Cl)cc3)nn2c1C(=O)c1ccc([N+](=O)[O-])cc1
inactive: TK-10 28.1 µM | DU-145 > 100 µM | EKVX 27.4 µM | HCT-116 27.2 µM | A498 > 100 µM | OVCAR-8 36.2 µM | KM12 > 100 µM | HCC 2998 > 100 µM | MDA-MB-435 50.1 µM | SK-MEL-2 34.8 µM | CAKI-1 32.9 µM | MCF7 40.2 µM | SN12C > 100 µM | SNB-19 > 100 µM | LOX IMVI 39 µM | SF-268 44.7 µM | SK-MEL-28 > 100 µM

COc1c2c(cc3c1OCO3)[C@]13C=C[C@H](OC)C[C@H]1N(C2)CC3O (some centres not stated)
inactive: TK-10 > 100 µM | IGROV-1 > 100 µM | DU-145 > 100 µM | EKVX > 100 µM | HCT-116 > 100 µM | A498 > 100 µM | OVCAR-8 > 100 µM | KM12 > 100 µM | HCC 2998 > 100 µM | MDA-MB-435 > 100 µM | SK-MEL-2 > 100 µM | CAKI-1 > 100 µM | MCF7 > 100 µM | SN12C > 100 µM | SNB-19 > 100 µM | LOX IMVI > 100 µM | SF-268 > 100 µM | SK-MEL-28 > 100 µM

O=C(O)CC(C(=O)O)C1c2ccccc2-c2ccccc21 (configuration not stated)
inactive: TK-10 > 100 µM | IGROV-1 70 µM | DU-145 17.9 µM | EKVX > 100 µM | HCT-116 > 100 µM | A498 > 100 µM | OVCAR-8 67 µM | KM12 66.8 µM | HCC 2998 > 100 µM | MDA-MB-435 77.1 µM | SK-MEL-2 > 100 µM | CAKI-1 66.1 µM | MCF7 34.2 µM | SN12C > 100 µM | SNB-19 34 µM | LOX IMVI 38.5 µM | SF-268 79.6 µM | SK-MEL-28 > 100 µM

CCNC(=O)C1CCCN1C(=O)C(CCCN=C(N)N)NC(=O)C(CC(C)C)NC(=O)C(Cc1c[nH]c2ccccc12)NC(=O)C(Cc1ccc(O)cc1)NC(=O)C(CO)NC(=O)C(Cc1c[nH]c2ccccc12)NC(=O)C(Cc1c[nH]cn1)NC(=O)C1CCC(=O)N1 (configuration not stated)
inactive: TK-10 > 100 µM | IGROV-1 > 100 µM | DU-145 > 100 µM | EKVX > 100 µM | A498 > 100 µM | OVCAR-8 > 100 µM | KM12 > 100 µM | SNB-75 > 100 µM | HCC 2998 > 100 µM | MDA-MB-435 > 100 µM | SK-MEL-2 > 100 µM | CAKI-1 > 100 µM | MCF7 > 100 µM | SN12C > 100 µM | SNB-19 > 100 µM | SF-268 > 100 µM

Nc1nc(NCC2(CO)CC(CCc3ccccc3)C2)cc(=O)[nH]1 (configuration not stated)
inactive: IGROV-1 > 100 µM | DU-145 > 100 µM | EKVX > 100 µM | HCT-116 > 100 µM | A498 > 100 µM | OVCAR-8 > 100 µM | KM12 > 100 µM | SNB-75 > 100 µM | HCC 2998 > 100 µM | MDA-MB-435 > 100 µM | SK-MEL-2 > 100 µM | CAKI-1 > 100 µM | MCF7 > 100 µM | SN12C > 100 µM | SNB-19 > 100 µM | LOX IMVI > 100 µM | SF-268 > 100 µM | SK-MEL-28 > 100 µM

Cc1cc(S(=O)(=O)[N-]C(=C(C#N)C#N)[n+]2ccc(N(C)C)cc2)c(SCC(=O)O)cc1Cl
inactive: TK-10 > 100 µM | IGROV-1 > 100 µM | DU-145 > 100 µM | EKVX > 100 µM | HCT-116 > 100 µM | A498 > 100 µM | OVCAR-8 > 100 µM | KM12 > 100 µM | HCC 2998 > 100 µM | MDA-MB-435 > 100 µM | SK-MEL-2 > 100 µM | CAKI-1 > 100 µM | MCF7 > 100 µM | SN12C > 100 µM | SNB-19 > 100 µM | SF-268 > 100 µM | SK-MEL-28 > 100 µM

O=C(CC(C(=O)c1ccsc1)c1ccccc1)c1ccccc1 (configuration not stated)
inactive: TK-10 > 100 µM | IGROV-1 > 100 µM | DU-145 > 100 µM | EKVX > 100 µM | HCT-116 75 µM | A498 25.8 µM | OVCAR-8 > 100 µM | KM12 49.9 µM | SNB-75 > 100 µM | HCC 2998 > 100 µM | MDA-MB-435 54.2 µM | CAKI-1 > 100 µM | MCF7 > 100 µM | SN12C > 100 µM | LOX IMVI > 100 µM | SF-268 > 100 µM | SK-MEL-28 7.28 µM

Cc1ccc(S(=O)(=O)N2CCCSCCN(S(=O)(=O)c3ccc(C)cc3)CCCSCC2)cc1
inactive: TK-10 > 100 µM | IGROV-1 > 100 µM | DU-145 > 100 µM | EKVX > 100 µM | HCT-116 > 100 µM | A498 > 100 µM | OVCAR-8 > 100 µM | KM12 > 100 µM | SNB-75 > 100 µM | HCC 2998 89.5 µM | MDA-MB-435 > 100 µM | SK-MEL-2 > 100 µM | MCF7 > 100 µM | SN12C > 100 µM | SNB-19 > 100 µM | SF-268 > 100 µM | SK-MEL-28 > 100 µM

O=C(CN1CCN(Cc2ccccc2)CC1)N1CCCn2c1nc1ccccc1c2=O
inactive: TK-10 > 100 µM | IGROV-1 > 100 µM | DU-145 > 100 µM | EKVX > 100 µM | HCT-116 > 100 µM | A498 > 100 µM | OVCAR-8 > 100 µM | KM12 > 100 µM | SNB-75 > 100 µM | HCC 2998 > 100 µM | MDA-MB-435 > 100 µM | SK-MEL-2 > 100 µM | CAKI-1 > 100 µM | MCF7 > 100 µM | SN12C > 100 µM | SNB-19 > 100 µM | LOX IMVI > 100 µM | SF-268 > 100 µM

CS(=O)(=O)c1ccc(/C=N/NC(N)=S)cc1
inactive: TK-10 > 100 µM | IGROV-1 > 100 µM | DU-145 > 100 µM | EKVX > 100 µM | HCT-116 > 100 µM | A498 > 100 µM | OVCAR-8 > 100 µM | KM12 > 100 µM | SNB-75 > 100 µM | HCC 2998 > 100 µM | MDA-MB-435 > 100 µM | CAKI-1 > 100 µM | MCF7 > 100 µM | SN12C > 100 µM | SNB-19 > 100 µM | LOX IMVI > 100 µM | SF-268 > 100 µM | SK-MEL-28 > 100 µM

O=C(Nc1nn(C(=O)c2ccc(Cl)cc2)c(=O)s1)c1ccc(Cl)cc1
inactive: TK-10 > 100 µM | IGROV-1 > 100 µM | DU-145 > 100 µM | EKVX 94.8 µM | HCT-116 > 100 µM | A498 > 100 µM | OVCAR-8 > 100 µM | KM12 > 100 µM | HCC 2998 > 100 µM | MDA-MB-435 > 100 µM | CAKI-1 > 100 µM | MCF7 > 100 µM | SN12C > 100 µM | SNB-19 > 100 µM | LOX IMVI > 100 µM | SF-268 > 100 µM | SK-MEL-28 > 100 µM

NCC(O)CSP(=O)(O)O (configuration not stated)
inactive: TK-10 > 100 µM | IGROV-1 > 100 µM | DU-145 > 100 µM | EKVX > 100 µM | HCT-116 > 100 µM | A498 > 100 µM | OVCAR-8 > 100 µM | KM12 > 100 µM | SNB-75 > 100 µM | MDA-MB-435 > 100 µM | SK-MEL-2 > 100 µM | CAKI-1 > 100 µM | MCF7 > 100 µM | SN12C > 100 µM | SNB-19 > 100 µM | LOX IMVI > 100 µM | SF-268 > 100 µM | SK-MEL-28 > 100 µM

O=[N+]([O-])c1cccc(Cl)c1Oc1ccc(S(=O)(=O)N/C(=N\O)Nc2ccc(Cl)cc2)cc1
inactive: TK-10 14.8 µM | IGROV-1 15.1 µM | DU-145 15.5 µM | EKVX 12.2 µM | HCT-116 12.5 µM | A498 14.2 µM | OVCAR-8 16.3 µM | KM12 15.9 µM | HCC 2998 10.8 µM | MDA-MB-435 14.3 µM | SK-MEL-2 13 µM | CAKI-1 9.46 µM | MCF7 13.3 µM | SN12C 12.3 µM | SNB-19 16.2 µM | LOX IMVI 14.3 µM | SF-268 9.1 µM | SK-MEL-28 15.1 µM
